How the values were obtained:
Experiment in all cases: Radiolabeled ATP kinase assay, panel of 371 kinases (Table S6)
Type in all cases: biochemical
[1] = target: T1, panel of 371 human kinases (Homo sapiens, UniProt O43781); conditions: DYRK3; 0.1 μM; 10 μM ATP; read-out: % Enzyme Activity (relative to DMSO controls)
T1 construct: purchased Reaction Biology Corp
Description: (§1) ; FIG. 38C). […]. Further targeted analyses, such as genetic knock-down or knock-out, may be warranted to parse the role of these additional kinases in our model of neurodegeneration.

[2] = target: T2, panel of 371 human kinases (Homo sapiens, UniProt O60285); conditions: ARK5/NUAK1; 0.1 μM; 10 μM ATP; read-out: % Enzyme Activity (relative to DMSO controls)
T2 construct: purchased Reaction Biology Corp
Description: as §1

[3] = target: T3, panel of 371 human kinases (Homo sapiens, UniProt O75460); conditions: ERN1/IRE1; 0.1 μM; 10 μM ATP; read-out: % Enzyme Activity (relative to DMSO controls)
T3 construct: purchased Reaction Biology Corp
Description: as §1

[4] = target: T4, panel of 371 human kinases (Homo sapiens, UniProt O96013); conditions: PAK4; 0.1 μM; 10 μM ATP; read-out: % Enzyme Activity (relative to DMSO controls)
T4 construct: purchased Reaction Biology Corp
Description: as §1

[5] = target: T5, panel of 371 human kinases (Homo sapiens, UniProt P07333); conditions: FMS; 0.1 μM; 10 μM ATP; read-out: % Enzyme Activity (relative to DMSO controls)
T5 construct: purchased Reaction Biology Corp
Description: as §1

[6] = target: T6, panel of 371 human kinases (Homo sapiens, UniProt P11362); conditions: FGFR1; 0.1 μM; 10 μM ATP; read-out: % Enzyme Activity (relative to DMSO controls)
T6 construct: purchased Reaction Biology Corp
Description: as §1

[7] = target: T7, panel of 371 human kinases (Homo sapiens, UniProt P19784); conditions: CK2a2; 0.1 μM; 10 μM ATP; read-out: % Enzyme Activity (relative to DMSO controls)
T7 construct: purchased Reaction Biology Corp
Description: as §1

[8] = target: T8, panel of 371 human kinases (Homo sapiens, UniProt P22607); conditions: FGFR3; 0.1 μM; 10 μM ATP; read-out: % Enzyme Activity (relative to DMSO controls)
T8 construct: purchased Reaction Biology Corp
Description: as §1

[9] = target: T9, panel of 371 human kinases (Homo sapiens, UniProt P30530); conditions: AXL; 0.1 μM; 10 μM ATP; read-out: % Enzyme Activity (relative to DMSO controls)
T9 construct: purchased Reaction Biology Corp
Description: as §1

[10] = target: T10, panel of 371 human kinases (Homo sapiens, UniProt P35968); conditions: KDR/VEGFR2; 0.1 μM; 10 μM ATP; read-out: % Enzyme Activity (relative to DMSO controls)
T10 construct: purchased Reaction Biology Corp
Description: as §1

[11] = target: T11, panel of 371 human kinases (Homo sapiens, UniProt P51956); conditions: NEK3; 0.1 μM; 10 μM ATP; read-out: % Enzyme Activity (relative to DMSO controls)
T11 construct: purchased Reaction Biology Corp
Description: as §1

[12] = target: T12, panel of 371 human kinases (Homo sapiens, UniProt P53350); conditions: PLK1; 0.1 μM; 10 μM ATP; read-out: % Enzyme Activity (relative to DMSO controls)
T12 construct: purchased Reaction Biology Corp
Description: as §1

[13] = target: T13, panel of 371 human kinases (Homo sapiens, UniProt P57059); conditions: SIK1; 0.1 μM; 10 μM ATP; read-out: % Enzyme Activity (relative to DMSO controls)
T13 construct: purchased Reaction Biology Corp
Description: as §1

[14] = target: T14, panel of 371 human kinases (Homo sapiens, UniProt Q06187); conditions: BTK; 0.1 μM; 10 μM ATP; read-out: % Enzyme Activity (relative to DMSO controls)
T14 construct: purchased Reaction Biology Corp
Description: as §1

[15] = target: T15, panel of 371 human kinases (Homo sapiens, UniProt Q13153); conditions: PAK1; 0.1 μM; 10 μM ATP; read-out: % Enzyme Activity (relative to DMSO controls)
T15 construct: purchased Reaction Biology Corp
Description: as §1

[16] = target: T16, panel of 371 human kinases (Homo sapiens, UniProt Q86UX6); conditions: STK32C/YANK3; 0.1 μM; 10 μM ATP; read-out: % Enzyme Activity (relative to DMSO controls)
T16 construct: purchased Reaction Biology Corp
Description: as §1

[17] = target: T17, panel of 371 human kinases (Homo sapiens, UniProt Q86V86); conditions: PIM3; 0.1 μM; 10 μM ATP; read-out: % Enzyme Activity (relative to DMSO controls)
T17 construct: purchased Reaction Biology Corp
Description: as §1

[18] = target: T18, panel of 371 human kinases (Homo sapiens, UniProt Q96PY6); conditions: NEK1; 0.1 μM; 10 μM ATP; read-out: % Enzyme Activity (relative to DMSO controls)
T18 construct: purchased Reaction Biology Corp
Description: as §1

[19] = target: T19, panel of 371 human kinases (Homo sapiens, UniProt Q9HC98); conditions: NEK6; 0.1 μM; 10 μM ATP; read-out: % Enzyme Activity (relative to DMSO controls)
T19 construct: purchased Reaction Biology Corp
Description: as §1

[20] = target: T20, panel of 371 human kinases (Homo sapiens, UniProt Q9NWZ3); conditions: IRAK4; 0.1 μM; 10 μM ATP; read-out: % Enzyme Activity (relative to DMSO controls)
T20 construct: purchased Reaction Biology Corp
Description: as §1

[21] = target: T21, panel of 371 human kinases (Homo sapiens, UniProt Q9NY57); conditions: STK32B/YANK2; 0.1 μM; 10 μM ATP; read-out: % Enzyme Activity (relative to DMSO controls)
T21 construct: purchased Reaction Biology Corp
Description: as §1

[22] = target: T22, panel of 371 human kinases (Homo sapiens, UniProt Q9UK32); conditions: RSK4; 0.1 μM; 10 μM ATP; read-out: % Enzyme Activity (relative to DMSO controls)
T22 construct: purchased Reaction Biology Corp
Description: as §1

[23] = target: T23, panel of 371 human kinases (Homo sapiens, UniProt Q9Y2U5); conditions: MEKK2; 0.1 μM; 10 μM ATP; read-out: % Enzyme Activity (relative to DMSO controls)
T23 construct: purchased Reaction Biology Corp
Description: as §1

[24] = target: T24, panel of 371 human kinases (Homo sapiens, UniProt Q9Y6M4); conditions: CK1g3; 0.1 μM; 10 μM ATP; read-out: % Enzyme Activity (relative to DMSO controls)
T24 construct: purchased Reaction Biology Corp
Description: as §1

T23 sequence (Q9Y2U5 whole entry): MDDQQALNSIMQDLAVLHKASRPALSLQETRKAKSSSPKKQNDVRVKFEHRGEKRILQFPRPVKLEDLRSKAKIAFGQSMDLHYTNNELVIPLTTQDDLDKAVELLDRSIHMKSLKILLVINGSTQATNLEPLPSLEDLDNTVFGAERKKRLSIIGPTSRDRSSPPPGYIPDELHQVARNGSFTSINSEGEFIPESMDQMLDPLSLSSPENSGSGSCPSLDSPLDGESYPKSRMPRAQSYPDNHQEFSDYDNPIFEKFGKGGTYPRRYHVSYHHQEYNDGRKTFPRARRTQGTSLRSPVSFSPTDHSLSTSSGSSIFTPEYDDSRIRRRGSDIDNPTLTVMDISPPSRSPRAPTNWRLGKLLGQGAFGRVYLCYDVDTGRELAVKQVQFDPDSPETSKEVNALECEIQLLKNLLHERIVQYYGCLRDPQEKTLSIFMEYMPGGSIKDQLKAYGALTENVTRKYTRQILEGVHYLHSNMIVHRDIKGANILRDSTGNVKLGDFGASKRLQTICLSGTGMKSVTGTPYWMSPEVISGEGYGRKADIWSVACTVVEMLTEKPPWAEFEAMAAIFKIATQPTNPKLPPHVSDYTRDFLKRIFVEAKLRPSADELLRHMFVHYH
T6 sequence (P11362 22-822): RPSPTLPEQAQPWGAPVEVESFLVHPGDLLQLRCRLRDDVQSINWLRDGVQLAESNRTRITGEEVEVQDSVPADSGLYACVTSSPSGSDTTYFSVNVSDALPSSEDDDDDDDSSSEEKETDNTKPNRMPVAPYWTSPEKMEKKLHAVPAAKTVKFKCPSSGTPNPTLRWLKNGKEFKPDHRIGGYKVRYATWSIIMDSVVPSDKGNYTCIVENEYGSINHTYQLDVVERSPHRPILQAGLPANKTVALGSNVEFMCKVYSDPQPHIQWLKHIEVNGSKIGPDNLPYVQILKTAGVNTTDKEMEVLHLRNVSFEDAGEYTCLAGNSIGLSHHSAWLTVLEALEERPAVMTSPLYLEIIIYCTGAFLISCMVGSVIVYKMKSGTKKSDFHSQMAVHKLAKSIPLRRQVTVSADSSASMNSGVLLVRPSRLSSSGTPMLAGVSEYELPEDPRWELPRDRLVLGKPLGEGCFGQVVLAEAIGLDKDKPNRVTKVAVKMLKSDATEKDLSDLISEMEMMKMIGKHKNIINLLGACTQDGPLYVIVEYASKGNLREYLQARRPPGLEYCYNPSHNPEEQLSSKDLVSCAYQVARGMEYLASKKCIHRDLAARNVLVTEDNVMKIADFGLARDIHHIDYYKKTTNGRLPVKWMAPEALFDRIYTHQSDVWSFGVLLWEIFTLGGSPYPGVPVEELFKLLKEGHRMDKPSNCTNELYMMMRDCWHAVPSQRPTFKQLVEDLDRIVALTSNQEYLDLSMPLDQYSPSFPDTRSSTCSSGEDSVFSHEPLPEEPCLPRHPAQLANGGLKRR
T12 sequence (P53350 whole entry): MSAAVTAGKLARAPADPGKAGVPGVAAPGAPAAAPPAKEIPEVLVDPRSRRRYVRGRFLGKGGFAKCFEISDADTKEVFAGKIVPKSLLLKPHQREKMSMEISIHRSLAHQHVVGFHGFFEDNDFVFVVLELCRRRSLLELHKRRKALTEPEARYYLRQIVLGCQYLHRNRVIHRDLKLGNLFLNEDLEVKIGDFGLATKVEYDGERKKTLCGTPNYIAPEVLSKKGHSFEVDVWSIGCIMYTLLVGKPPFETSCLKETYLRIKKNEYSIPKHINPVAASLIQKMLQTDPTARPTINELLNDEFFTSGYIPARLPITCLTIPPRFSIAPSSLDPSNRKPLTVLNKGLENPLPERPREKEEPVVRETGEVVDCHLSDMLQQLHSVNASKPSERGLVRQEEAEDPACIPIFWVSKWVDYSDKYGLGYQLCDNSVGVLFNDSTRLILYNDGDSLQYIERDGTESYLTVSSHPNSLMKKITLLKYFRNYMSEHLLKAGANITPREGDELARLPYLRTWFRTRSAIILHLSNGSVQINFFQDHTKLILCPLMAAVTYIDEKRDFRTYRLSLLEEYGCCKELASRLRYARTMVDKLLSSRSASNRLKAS
T14 sequence (Q06187 whole entry): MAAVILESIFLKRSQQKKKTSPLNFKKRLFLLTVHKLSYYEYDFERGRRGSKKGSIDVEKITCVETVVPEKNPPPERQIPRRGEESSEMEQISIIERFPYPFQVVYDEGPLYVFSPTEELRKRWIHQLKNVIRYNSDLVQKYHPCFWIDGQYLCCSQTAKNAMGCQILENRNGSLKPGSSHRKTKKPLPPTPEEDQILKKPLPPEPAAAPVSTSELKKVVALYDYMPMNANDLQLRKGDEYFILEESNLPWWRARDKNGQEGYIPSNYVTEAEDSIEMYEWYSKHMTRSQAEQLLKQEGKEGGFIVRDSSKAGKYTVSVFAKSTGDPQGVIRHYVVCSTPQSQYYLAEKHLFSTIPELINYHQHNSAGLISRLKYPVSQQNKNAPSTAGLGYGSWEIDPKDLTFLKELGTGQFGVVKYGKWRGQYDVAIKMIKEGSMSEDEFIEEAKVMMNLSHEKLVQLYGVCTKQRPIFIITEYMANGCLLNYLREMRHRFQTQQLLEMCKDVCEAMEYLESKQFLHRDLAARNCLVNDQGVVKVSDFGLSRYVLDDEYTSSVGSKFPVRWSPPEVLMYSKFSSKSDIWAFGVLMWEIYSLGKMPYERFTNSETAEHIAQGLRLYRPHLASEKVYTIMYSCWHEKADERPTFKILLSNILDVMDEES
T3 sequence (O75460 19-977): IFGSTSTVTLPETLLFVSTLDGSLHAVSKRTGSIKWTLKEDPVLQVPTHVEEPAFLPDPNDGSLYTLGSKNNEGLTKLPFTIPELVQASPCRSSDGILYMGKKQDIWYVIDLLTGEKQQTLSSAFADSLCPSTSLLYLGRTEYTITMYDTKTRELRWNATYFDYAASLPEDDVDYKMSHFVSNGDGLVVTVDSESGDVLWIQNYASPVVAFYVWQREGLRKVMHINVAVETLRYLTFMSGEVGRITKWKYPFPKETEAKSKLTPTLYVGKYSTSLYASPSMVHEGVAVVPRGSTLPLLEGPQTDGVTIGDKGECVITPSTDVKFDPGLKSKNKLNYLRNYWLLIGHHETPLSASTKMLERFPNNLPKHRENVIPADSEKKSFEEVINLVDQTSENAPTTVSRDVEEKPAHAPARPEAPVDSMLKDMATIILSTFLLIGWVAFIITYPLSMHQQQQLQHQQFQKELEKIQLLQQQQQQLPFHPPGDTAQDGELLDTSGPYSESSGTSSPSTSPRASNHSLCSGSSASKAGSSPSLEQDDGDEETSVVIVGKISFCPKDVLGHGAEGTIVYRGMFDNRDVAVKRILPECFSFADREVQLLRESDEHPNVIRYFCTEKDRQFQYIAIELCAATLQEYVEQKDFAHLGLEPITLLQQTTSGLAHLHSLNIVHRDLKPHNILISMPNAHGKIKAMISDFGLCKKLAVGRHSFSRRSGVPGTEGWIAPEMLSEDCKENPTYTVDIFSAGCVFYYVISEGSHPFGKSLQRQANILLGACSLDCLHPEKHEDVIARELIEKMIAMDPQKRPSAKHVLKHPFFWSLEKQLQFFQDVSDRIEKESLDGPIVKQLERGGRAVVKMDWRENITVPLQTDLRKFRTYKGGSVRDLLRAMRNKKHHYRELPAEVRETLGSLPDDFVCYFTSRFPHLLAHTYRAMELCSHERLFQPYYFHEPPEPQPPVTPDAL
T15 sequence (Q13153 whole entry): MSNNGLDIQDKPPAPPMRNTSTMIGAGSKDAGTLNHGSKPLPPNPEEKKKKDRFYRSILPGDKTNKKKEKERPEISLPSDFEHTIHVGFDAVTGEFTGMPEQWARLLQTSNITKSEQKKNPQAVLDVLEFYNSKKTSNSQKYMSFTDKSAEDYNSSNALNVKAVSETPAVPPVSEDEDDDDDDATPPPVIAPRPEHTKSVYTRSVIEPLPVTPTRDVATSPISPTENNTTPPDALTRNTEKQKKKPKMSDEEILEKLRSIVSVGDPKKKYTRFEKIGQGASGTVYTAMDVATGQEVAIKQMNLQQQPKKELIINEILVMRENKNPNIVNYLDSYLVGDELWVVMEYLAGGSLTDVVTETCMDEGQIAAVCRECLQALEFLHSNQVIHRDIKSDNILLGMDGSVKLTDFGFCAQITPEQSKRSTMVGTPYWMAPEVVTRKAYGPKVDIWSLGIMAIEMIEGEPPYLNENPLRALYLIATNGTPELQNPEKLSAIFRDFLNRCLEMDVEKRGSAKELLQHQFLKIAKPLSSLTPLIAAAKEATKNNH
T11 sequence (P51956 whole entry): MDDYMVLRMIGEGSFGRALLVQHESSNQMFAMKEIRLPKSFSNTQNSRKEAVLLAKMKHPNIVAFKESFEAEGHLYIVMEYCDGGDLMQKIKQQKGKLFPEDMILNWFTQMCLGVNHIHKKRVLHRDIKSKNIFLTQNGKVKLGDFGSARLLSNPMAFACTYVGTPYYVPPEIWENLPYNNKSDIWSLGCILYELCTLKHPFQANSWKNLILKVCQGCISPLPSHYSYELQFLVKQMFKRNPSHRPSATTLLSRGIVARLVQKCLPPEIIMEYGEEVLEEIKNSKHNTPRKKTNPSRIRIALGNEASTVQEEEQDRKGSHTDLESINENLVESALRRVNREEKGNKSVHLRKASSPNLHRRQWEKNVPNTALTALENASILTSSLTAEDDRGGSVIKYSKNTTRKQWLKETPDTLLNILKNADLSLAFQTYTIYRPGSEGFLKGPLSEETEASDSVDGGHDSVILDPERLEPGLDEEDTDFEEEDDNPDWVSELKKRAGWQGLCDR
T7 sequence (P19784 whole entry): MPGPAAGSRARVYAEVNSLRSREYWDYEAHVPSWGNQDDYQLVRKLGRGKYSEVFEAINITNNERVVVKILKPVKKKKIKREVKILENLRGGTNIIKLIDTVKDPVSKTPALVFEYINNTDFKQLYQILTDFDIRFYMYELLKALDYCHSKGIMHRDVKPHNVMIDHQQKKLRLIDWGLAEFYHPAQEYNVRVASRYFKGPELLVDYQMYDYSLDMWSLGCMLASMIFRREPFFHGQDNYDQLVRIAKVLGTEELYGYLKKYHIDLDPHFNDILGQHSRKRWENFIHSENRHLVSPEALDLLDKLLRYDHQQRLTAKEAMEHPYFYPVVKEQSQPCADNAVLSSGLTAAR

Structure (SMILES) | remaining activity at 0.1 µM [1] | remaining activity at 0.1 µM [2] | remaining activity at 0.1 µM [3] | remaining activity at 0.1 µM [4] | remaining activity at 0.1 µM [5] | remaining activity at 0.1 µM [6] | remaining activity at 0.1 µM [7] | remaining activity at 0.1 µM [8] | remaining activity at 0.1 µM [9] | remaining activity at 0.1 µM [10] | remaining activity at 0.1 µM [11] | remaining activity at 0.1 µM [12] | remaining activity at 0.1 µM [13] | remaining activity at 0.1 µM [14] | remaining activity at 0.1 µM [15] | remaining activity at 0.1 µM [16] | remaining activity at 0.1 µM [17] | remaining activity at 0.1 µM [18] | remaining activity at 0.1 µM [19] | remaining activity at 0.1 µM [20] | further results
CN1CCN(Cc2ccc(-c3cnc4[nH]cc(-c5ccc6[nH]ccc6c5)c4c3)cc2)CC1 [Compound 1, 3-(1H-Indol-5-yl)-5-(4-((4-methylpiperazin-1-yl)methyl)phenyl)-1H-pyrrolo[2,3-b]pyridine, reference compound] | 74.9% | 26.9% | 107% | 88% | 85.4% | 93.9% | 84.3% | 76.7% | 35.8% | 76.2% | 88.3% | 98.6% | 102% | 103% | 85.2% | 98.3% | 92.9% | 80.1% | 92.7% | 106% | remaining activity at 0.1 µM [21]: 97%; remaining activity at 0.1 µM [22]: 83.5%; remaining activity at 0.1 µM [23]: 102%; remaining activity at 0.1 µM [24]: 92.2%
OCCN1CCN(Cc2ccc(-c3cnc4[nH]cc(-c5cccc(Cl)c5)c4c3)cc2)CC1 [Compound 12k, 2-(4-(4-(3-(3-Chlorophenyl)-1H-pyrrolo[2,3-b]pyridin-5-yl)benzyl)piperazin-1-yl)ethan-1-ol] | 89.2% | 14.4% | 98.9% | 93.8% | 26.8% | 95% | 89% | 80.9% | 39.8% | 84.7% | 91.1% | 100% | 106% | 99.7% | 78.2% | 93% | 106% | 76.5% | 95.1% | 95.4% | remaining activity at 0.1 µM [21]: 88.5%; remaining activity at 0.1 µM [22]: 41.2%; remaining activity at 0.1 µM [23]: 93.3%; remaining activity at 0.1 µM [24]: 92.4%

Source: patent US12227500B2, “Substituted pyrrolo[2,3-b]pyridines for suppressing toxic endoplasmic reticulum stress” (THE TRUSTEES OF COLUMBIA UNIVERSITY IN THE CITY OF NEW YORK, priority 2018, dated 2025)
